# Experimental data taken from patent US20060069132A1, “Azolecarboxamide herbicides” (priority 2004, published 2006).
# Key:
# downy bromegrass = assay: Test C postemergence herbicide test; type: in vivo, Bromus tectorum
# Description: (§1) At the same time, plants selected from these crop and weed species and also winter barley (Hordeum vulgare L.), blackgrass (Alopecurus myosuroides Huds.), canarygrass (Phalaris minor Retz.), chickweed (Stellaria media (L.) Vill.), downy bromegrass (Bromus tectorum L.), green foxtail (Setaria viridis (L.) Beauv.), Italian ryegrass (Lolium multiflorum Lam.), wheat (Triticum aestivum L.), wild oat (Avenafatua L.) and windgrass (Apera spica-venti (L.) Beauv.) were treated with postemergence applications of some of the test chemicals formulated in the same manner. Plants ranged in height from 2 to 18 cm (1- to 4-leaf stage) for postemergence treatments. Plant species in the flooded paddy test consisted of rice (Oryza sativa), smallflower umbrella sedge (Cyperus difformis L.), ducksalad (Heteranthera limosa (Sw.) Willd.) and barnyardgrass (Echinochloa crus-galli (L.) Beauv.) grown to the 2-leaf stage for testing. Treated plants and controls were maintained in a greenhouse for 12 to 14 days, after which time all species were compared to controls and visually evaluated. Plant response ratings, summarized in Table C, are based on a scale of 0 to 100 where 0 is no effect and 100 is complete control. A dash (-) response means no test result.
# green foxtail [1] = assay: Test C postemergence herbicide test; type: in vivo, Setaria viridis
# Description: as §1
# Italian ryegrass [2] = assay: Test C postemergence herbicide test; type: in vivo, Lolium multiflorum
# Description: as §1
# bermudagrass = assay: Test E pre-/postemergence herbicide test; type: in vivo, Cynodon dactylon; conditions: Preemergence
# Outline: (§2)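 Seeds were planted and treated preemergence with test chemicals in a non-phytotoxic solvent mixture containing surfactant; plants at 2 to 18 cm (1- to 4-leaf stage) received postemergence applications of the same formulation. After 12 to 14 days in a greenhouse, injury was visually rated against untreated controls on a 0 to 100 scale.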
# Surinam grass = assay: Test E pre-/postemergence herbicide test; type: in vivo, Urochloa decumbens; conditions: Preemergence
# Outline: as §2
# green foxtail [3] = assay: Test E pre-/postemergence herbicide test; type: in vivo, Setaria viridis; conditions: Preemergence
# Outline: as §2
# mustard = assay: Test E pre-/postemergence herbicide test; type: in vivo, Brassica nigra; conditions: Preemergence
# Outline: as §2
# guineagrass = assay: Test E pre-/postemergence herbicide test; type: in vivo, Panicum maximum; conditions: Preemergence
# Outline: as §2
# barnyardgrass = assay: Test E pre-/postemergence herbicide test; type: in vivo, Echinochloa crus-galli; conditions: Preemergence
# Outline: as §2
# southern sandbur = assay: Test E pre-/postemergence herbicide test; type: in vivo, Cenchrus echinatus; conditions: Preemergence
# Outline: as §2
# Italian ryegrass [4] = assay: Test E pre-/postemergence herbicide test; type: in vivo, Lolium multiflorum; conditions: Preemergence
# Outline: as §2
# broadleaf signalgrass = assay: Test E pre-/postemergence herbicide test; type: in vivo, Brachiaria platyphylla; conditions: Preemergence
# Outline: as §2
# Canada horseweed = assay: Test E pre-/postemergence herbicide test; type: in vivo, Erigeron Canadensis; conditions: Preemergence
# Outline: as §2
# [5] = Postemergence, 500 g ai/ha, scale 0 to 100
# [6] = Postemergence, 250 g ai/ha, scale 0 to 100, 0 no effect, 100 complete control
# [7] = postemergence, 125 g ai/ha, scale 0 to 100
# [8] = postemergence, 62 g ai/ha, scale 0 to 100
# [9] = 250 g ai/ha, scale 0 (no effect) to 100 (complete control)
# [10] = 500 g ai/ha, scale 0 (no effect) to 100 (complete control)
smiles,measurement,setting,value
CCn1nc(C(C)(C)C)cc1C(=O)Nc1cccc(OC(F)F)c1 [Compound 332],"Bromegrass, Downy plant response rating",downy bromegrass; [5],65
same,"Plant response rating, Bromegrass, Downy",downy bromegrass; [6],50
same,"Plant response rating, Bromegrass, Downy",downy bromegrass; [7],40
same,"Plant response rating, Bromegrass, Downy",downy bromegrass; [8],35
same,"Foxtail, Green plant response rating",green foxtail [1]; [5],70
same,"Plant response rating, Foxtail, Green",green foxtail [1]; [6],50
same,"Plant response rating, Foxtail, Green",green foxtail [1]; [7],40
same,"Plant response rating, Foxtail, Green",green foxtail [1]; [8],35
same,"Ryegrass, Italian plant response rating",Italian ryegrass [2]; [5],70
same,"Plant response rating, Ryegrass, Italian",Italian ryegrass [2]; [6],70
same,"Plant response rating, Ryegrass, Italian",Italian ryegrass [2]; [7],60
same,"Plant response rating, Ryegrass, Italian",Italian ryegrass [2]; [8],60
CCn1nc(C(C)(C)C)cc1C(=O)Nc1cc(C(=S)N(C)C)ccn1 [Compound 334],"Plant response rating, Bromegrass, Downy",downy bromegrass; [6],45
same,"Plant response rating, Bromegrass, Downy",downy bromegrass; [7],35
same,"Plant response rating, Bromegrass, Downy","downy bromegrass; postemergence, 31 g ai/ha, scale 0 to 100",20
same,"Plant response rating, Bromegrass, Downy",downy bromegrass; [8],30
same,"Plant response rating, Foxtail, Green",green foxtail [1]; [6],45
same,"Plant response rating, Foxtail, Green",green foxtail [1]; [7],35
same,"Plant response rating, Foxtail, Green",green foxtail [1]; [8],35
same,"Plant response rating, Ryegrass, Italian",Italian ryegrass [2]; [6],45
same,"Plant response rating, Ryegrass, Italian",Italian ryegrass [2]; [7],35
same,"Plant response rating, Ryegrass, Italian",Italian ryegrass [2]; [8],30
CCc1nn(C(C)(C)C)nc1C(=O)Nc1cccc(C(=S)N(C)C)c1 [Compound 395],"Plant response rating, Bermudagrass","bermudagrass; 62 g ai/ha, scale 0 to 100",90
same,"Plant response rating, Bermudagrass","bermudagrass; 125 g ai/ha, scale 0 to 100",95
same,"Plant response rating, Bermudagrass",bermudagrass; [9],95
same,"Plant response rating, Bermudagrass",bermudagrass; [10],95
same,"Plant response rating, Surinam Grass","Surinam grass; 125 g ai/ha, scale 0 to 100",75
same,"Plant response rating, Surinam Grass",Surinam grass; [10],90
same,"Plant response rating, Foxtail, Green","green foxtail [3]; 62 g ai/ha, scale 0 to 100",10
same,"Plant response rating, Foxtail, Green","green foxtail [3]; 125 g ai/ha, scale 0 to 100",40
same,"Plant response rating, Foxtail, Green",green foxtail [3]; [9],80
same,"Plant response rating, Foxtail, Green",green foxtail [3]; [10],90
same,"Plant response rating, Black Mustard","mustard; 62 g ai/ha, scale 0 to 100",40
same,"Plant response rating, Black Mustard","mustard; 125 g ai/ha, scale 0 to 100",60
same,"Plant response rating, Black Mustard",mustard; [9],90
same,"Plant response rating, Black Mustard",mustard; [10],95
same,"Plant response rating, Guineagrass","guineagrass; 62 g ai/ha, scale 0 to 100",80
same,"Plant response rating, Guineagrass","guineagrass; 125 g ai/ha, scale 0 to 100",100
same,"Plant response rating, Guineagrass",guineagrass; [9],100
same,"Plant response rating, Guineagrass",guineagrass; [10],100
same,"Plant response rating, Barnyardgrass","barnyardgrass; 62 g ai/ha, scale 0 to 100",50
same,"Plant response rating, Barnyardgrass","barnyardgrass; 125 g ai/ha, scale 0 to 100",60
same,"Plant response rating, Barnyardgrass",barnyardgrass; [9],95
same,"Plant response rating, Barnyardgrass",barnyardgrass; [10],95
same,"Plant response rating, Sandbur","southern sandbur; 62 g ai/ha, scale 0 to 100",50
same,"Plant response rating, Sandbur","southern sandbur; 125 g ai/ha, scale 0 to 100",60
same,"Plant response rating, Sandbur",southern sandbur; [9],80
same,"Plant response rating, Sandbur",southern sandbur; [10],80
same,"Plant response rating, Ryegrass, Italian","Italian ryegrass [4]; 62 g ai/ha, scale 0 to 100",20
same,"Plant response rating, Ryegrass, Italian","Italian ryegrass [4]; 125 g ai/ha, scale 0 to 100",80
same,"Plant response rating, Ryegrass, Italian",Italian ryegrass [4]; [9],90
same,"Plant response rating, Ryegrass, Italian",Italian ryegrass [4]; [10],95
same,"Plant response rating, Signalgrass","broadleaf signalgrass; 62 g ai/ha, scale 0 to 100",10
same,"Plant response rating, Signalgrass","broadleaf signalgrass; 125 g ai/ha, scale 0 to 100",75
same,"Plant response rating, Signalgrass",broadleaf signalgrass; [9],85
same,"Plant response rating, Signalgrass",broadleaf signalgrass; [10],90
same,"Plant response rating, Horseweed","Canada horseweed; 62 g ai/ha, scale 0 to 100",90
same,"Plant response rating, Horseweed","Canada horseweed; 125 g ai/ha, scale 0 to 100",100
same,"Plant response rating, Horseweed",Canada horseweed; [9],100
same,"Plant response rating, Horseweed",Canada horseweed; [10],100
